According to PubChem BioAssay AID1259407 (Chemical Carcinogenesis Research Information System (CCRIS), 2018):
Active and inactive are the calls of the source. How the calls were made is not given here.

Tested on: CCRIS mutagenicity, Ames/micronucleus/aberration tests
Test: CCRIS mutagenicity studies
[1] = Test System: AMES SALMONELLA TYPHIMURIUM, Strain/Indicator: TA98, Metabolic Activation: NONE, Method: PREINCUBATION
[2] = Test System: AMES SALMONELLA TYPHIMURIUM, Strain/Indicator: TA98, Metabolic Activation: NONE, Method: STANDARD PLATE
[3] = Test System: AMES SALMONELLA TYPHIMURIUM, Strain/Indicator: TA100, Metabolic Activation: NONE, Method: PREINCUBATION
[4] = Test System: AMES SALMONELLA TYPHIMURIUM, Strain/Indicator: TA100, Metabolic Activation: NONE, Method: STANDARD PLATE
[5] = Test System: AMES SALMONELLA TYPHIMURIUM, Strain/Indicator: TA1535, Metabolic Activation: NONE, Method: PREINCUBATION
[6] = Test System: AMES SALMONELLA TYPHIMURIUM, Strain/Indicator: TA1537, Metabolic Activation: NONE, Method: PREINCUBATION

Structure (SMILES): Nc1c(Br)cc([N+](=O)[O-])cc1[N+](=O)[O-]
- mutagenic call (Test System: AMES SALMONELLA TYPHIMURIUM, Strain/Indicator: TA98, Metabolic Activation: HAMSTER, LIVER, S-9, AROCLOR 1254 (10%), Method: PREINCUBATION): active; positive
- mutagenic call (Test System: AMES SALMONELLA TYPHIMURIUM, Strain/Indicator: TA98, Metabolic Activation: HAMSTER, LIVER, S-9, AROCLOR 1254, Method: STANDARD PLATE): active; positive
- mutagenic call [1]: active; positive
- mutagenic call [2]: active; positive
- mutagenic call (Test System: AMES SALMONELLA TYPHIMURIUM, Strain/Indicator: TA98, Metabolic Activation: RAT, LIVER, S-9, AROCLOR 1254 (10%), Method: PREINCUBATION): active; positive
- mutagenic call (Test System: AMES SALMONELLA TYPHIMURIUM, Strain/Indicator: TA98, Metabolic Activation: RAT, LIVER, S-9, AROCLOR 1254, Method: STANDARD PLATE): active; positive
- mutagenic call (Test System: AMES SALMONELLA TYPHIMURIUM, Strain/Indicator: TA98, Metabolic Activation: RAT, LIVER, S-9, KANECHLOR 500, Method: PREINCUBATION): active; positive
- mutagenic call (Test System: AMES SALMONELLA TYPHIMURIUM, Strain/Indicator: TA100, Metabolic Activation: HAMSTER, LIVER, S-9, AROCLOR 1254 (10%), Method: PREINCUBATION): active; positive
- mutagenic call (Test System: AMES SALMONELLA TYPHIMURIUM, Strain/Indicator: TA100, Metabolic Activation: HAMSTER, LIVER, S-9, AROCLOR 1254, Method: STANDARD PLATE): active; positive
- mutagenic call [3]: active; positive
- mutagenic call [4]: active; positive
- mutagenic call (Test System: AMES SALMONELLA TYPHIMURIUM, Strain/Indicator: TA100, Metabolic Activation: RAT, LIVER, S-9, AROCLOR 1254 (10%), Method: PREINCUBATION): active; positive
- mutagenic call (Test System: AMES SALMONELLA TYPHIMURIUM, Strain/Indicator: TA100, Metabolic Activation: RAT, LIVER, S-9, AROCLOR 1254, Method: STANDARD PLATE): active; positive
- mutagenic call (Test System: AMES SALMONELLA TYPHIMURIUM, Strain/Indicator: TA100, Metabolic Activation: RAT, LIVER, S-9, KANECHLOR 500, Method: PREINCUBATION): active; positive
- mutagenic call (Test System: AMES SALMONELLA TYPHIMURIUM, Strain/Indicator: TA1535, Metabolic Activation: HAMSTER, LIVER, S-9, AROCLOR 1254 (10%), Method: PREINCUBATION): inactive; negative
- mutagenic call [5]: inactive; negative
- mutagenic call (Test System: AMES SALMONELLA TYPHIMURIUM, Strain/Indicator: TA1535, Metabolic Activation: RAT, LIVER, S-9, AROCLOR 1254 (10%), Method: PREINCUBATION): inactive; negative
- mutagenic call (Test System: AMES SALMONELLA TYPHIMURIUM, Strain/Indicator: TA1537, Metabolic Activation: HAMSTER, LIVER, S-9, AROCLOR 1254 (10%), Method: PREINCUBATION): active; positive
- mutagenic call (Test System: AMES SALMONELLA TYPHIMURIUM, Strain/Indicator: TA1537, Metabolic Activation: HAMSTER, LIVER, S-9, AROCLOR 1254, Method: STANDARD PLATE): active; positive
- mutagenic call [6]: active; positive
- mutagenic call (Test System: AMES SALMONELLA TYPHIMURIUM, Strain/Indicator: TA1537, Metabolic Activation: NONE, Method: STANDARD PLATE): active; positive
- mutagenic call (Test System: AMES SALMONELLA TYPHIMURIUM, Strain/Indicator: TA1537, Metabolic Activation: RAT, LIVER, S-9, AROCLOR 1254 (10%), Method: PREINCUBATION): active; positive
- mutagenic call (Test System: AMES SALMONELLA TYPHIMURIUM, Strain/Indicator: TA1537, Metabolic Activation: RAT, LIVER, S-9, AROCLOR 1254, Method: STANDARD PLATE): active; positive
- mutagenic call (Test System: AMES SALMONELLA TYPHIMURIUM, Strain/Indicator: TA1538, Metabolic Activation: HAMSTER, LIVER, S-9, AROCLOR 1254, Method: STANDARD PLATE): active; positive
- mutagenic call (Test System: AMES SALMONELLA TYPHIMURIUM, Strain/Indicator: TA1538, Metabolic Activation: NONE, Method: STANDARD PLATE): active; positive
- mutagenic call (Test System: AMES SALMONELLA TYPHIMURIUM, Strain/Indicator: TA1538, Metabolic Activation: RAT, LIVER, S-9, AROCLOR 1254, Method: STANDARD PLATE): active; positive
- mutagenic call (Test System: MOUSE LYMPHOMA, Strain/Indicator: L5178Y (TK+/TK-), Metabolic Activation: NONE, Method: SUSPENSION/PLATE): active; positive. reevaluation of results: positive
- mutagenic call (Test System: MOUSE LYMPHOMA, Strain/Indicator: L5178Y (TK+/TK-), Metabolic Activation: RAT, LIVER, S-9, AROCLOR 1254, Method: SUSPENSION/PLATE): active; positive. reevaluation of results: positive

Structure (SMILES): COc1cccc(/C=C/c2ccc(N)cc2)c1
- mutagenic call (Test System: AMES SALMONELLA TYPHIMURIUM, Strain/Indicator: TA98(1,8-DNP6), Metabolic Activation: NONE, Method: STANDARD PLATE): inactive; negative
- mutagenic call (Test System: AMES SALMONELLA TYPHIMURIUM, Strain/Indicator: TA98(1,8-DNP6), Metabolic Activation: S-9, Method: STANDARD PLATE): active; positive
- mutagenic call [2]: active; positive
- mutagenic call (Test System: AMES SALMONELLA TYPHIMURIUM, Strain/Indicator: TA98, Metabolic Activation: S-9, Method: STANDARD PLATE): active; positive
- mutagenic call [4]: inactive; negative
- mutagenic call (Test System: AMES SALMONELLA TYPHIMURIUM, Strain/Indicator: TA100, Metabolic Activation: S-9, Method: STANDARD PLATE): active; positive

Structure (SMILES): Clc1ccccc1
- mutagenic call (End Point: IN VITRO CHROMOSOMAL ABERRATIONS, Test System: CHO CELLS, Metabolic Activation: NONE): inactive; negative
- mutagenic call (End Point: IN VITRO CHROMOSOMAL ABERRATIONS, Test System: CHO CELLS, Metabolic Activation: RAT, LIVER, S-9, AROCLOR 1254): inactive; negative; previous trial yielded a positive response at 150 ug/ml but no dose-re
- mutagenic call (Test System: AMES SALMONELLA TYPHIMURIUM, Strain/Indicator: TA98, Metabolic Activation: HAMSTER, LIVER, S-9, AROCLOR 1254, Method: PREINCUBATION): inactive; negative
- mutagenic call [1]: inactive; negative
- mutagenic call (Test System: AMES SALMONELLA TYPHIMURIUM, Strain/Indicator: TA98, Metabolic Activation: RAT, LIVER, S-9, AROCLOR 1254, Method: PREINCUBATION): inactive; negative
- mutagenic call (Test System: AMES SALMONELLA TYPHIMURIUM, Strain/Indicator: TA100, Metabolic Activation: HAMSTER, LIVER, S-9, AROCLOR 1254, Method: PREINCUBATION): inactive; negative
- mutagenic call [3]: inactive; negative
- mutagenic call (Test System: AMES SALMONELLA TYPHIMURIUM, Strain/Indicator: TA100, Metabolic Activation: RAT, LIVER, S-9, AROCLOR 1254, Method: PREINCUBATION): inactive; negative
- mutagenic call (Test System: AMES SALMONELLA TYPHIMURIUM, Strain/Indicator: TA1535, Metabolic Activation: HAMSTER, LIVER, S-9, AROCLOR 1254, Method: PREINCUBATION): inactive; negative
- mutagenic call [5]: inactive; negative
- mutagenic call (Test System: AMES SALMONELLA TYPHIMURIUM, Strain/Indicator: TA1535, Metabolic Activation: RAT, LIVER, S-9, AROCLOR 1254, Method: PREINCUBATION): inactive; negative
- mutagenic call (Test System: AMES SALMONELLA TYPHIMURIUM, Strain/Indicator: TA1537, Metabolic Activation: HAMSTER, LIVER, S-9, AROCLOR 1254, Method: PREINCUBATION): inactive; negative
- mutagenic call [6]: inactive; negative
- mutagenic call (Test System: AMES SALMONELLA TYPHIMURIUM, Strain/Indicator: TA1537, Metabolic Activation: RAT, LIVER, S-9, AROCLOR 1254, Method: PREINCUBATION): inactive; negative
